# Measured values: US6432383B1, “Method for administering insulin” (Generex Pharmaceuticals Incorporated, priority 2000, dated 2002)
# Test system: healthy non-diabetic human volunteers
# Test: Blood glucose in fasted healthy non-diabetic volunteers, injected vs oral insulin (Example 1)
# Assay type: in vivo
# Design: unit not given here
# Conditions: sub-cutaneous injection 10 units, avg of 5 fasted healthy volunteers
# Procedure: In one set of tests, five healthy non-diabetic human volunteers were tested with insulin, by injection. In another set of tests the volunteers were tested with insulin, taken orally. The volunteers fasted from midnight prior to the test, with no food being taken during the 4 hour study.
# On the first day, the volunteers received 10 units insulin by injection (regular fast acting insulin, available from Eli Lilly). On the second day, the volunteers received 100 units (1 mL volume per drop, approximately 20 drops) of the above-prepared oral insulin (10 times the injection dose). In both tests, blood glucose levels were monitored every 15 minutes by Bayer's Glucometer Elite.
substance,measurement,setting,value
insulin [regular fast acting insulin],Blood glucose levels,0 min,5.8
same,Blood glucose levels,15 min,5.8
same,Blood glucose levels,30 min,5.4
same,Blood glucose levels,60 min,5.0
same,Blood glucose levels,75 min,4.6
same,Blood glucose levels,90 min,4.3
same,Blood glucose levels,120 min,3.8
same,Blood glucose levels,150 min,3.6
same,Blood glucose levels,180 min,3.4
same,Blood glucose levels,210 min,4.2
same,Blood glucose levels,240 min,4.5
